Measurements published in ChEMBL document CHEMBL3638482, “2,3-disubstituted pyrazinesulfonamides as CRTH2 inhibitors” (2014).

The molecules below were run against T1, Prostaglandin D2 receptor 2 (Homo sapiens, UniProt Q9Y5Y4) (assay: The inhibitory activity can be investigated by a radioligand binding assay (Sawyer et al., Br. J. Pharmocol 2002, 137, 1163-72). The radioligand binding assay was performed at room temperature in binding buffer (10 mM HEPES/KOH pH […], with protease inhibitor cocktail tablets), containing 1.5 nM [3H]PGD2 (Amersham, 156 Cie/mmol), and 10 ug of hCRTH2 HEK293 (EBNA) cell membrane protein in a final volume of 100 ul in 96 well plates (Corning, USA). Non-specific binding was determined in the presence of 1 uM PGD2 (Cayman, USA). Competing pyrazine sulfonamides were diluted in dimethylsulphoxide so that the total volume of dimethylsulfoxide was kept constant at 1% dimethylsulphoxide (Me2SO). 10 ul of the pyrazine sulfonamides were added. Incubation (60 min at room temperature) was terminated by rapid filtration through 96 wells hydrophobic GF/C Unifilter plates.).
T1 sequence (Q9Y5Y4 whole entry): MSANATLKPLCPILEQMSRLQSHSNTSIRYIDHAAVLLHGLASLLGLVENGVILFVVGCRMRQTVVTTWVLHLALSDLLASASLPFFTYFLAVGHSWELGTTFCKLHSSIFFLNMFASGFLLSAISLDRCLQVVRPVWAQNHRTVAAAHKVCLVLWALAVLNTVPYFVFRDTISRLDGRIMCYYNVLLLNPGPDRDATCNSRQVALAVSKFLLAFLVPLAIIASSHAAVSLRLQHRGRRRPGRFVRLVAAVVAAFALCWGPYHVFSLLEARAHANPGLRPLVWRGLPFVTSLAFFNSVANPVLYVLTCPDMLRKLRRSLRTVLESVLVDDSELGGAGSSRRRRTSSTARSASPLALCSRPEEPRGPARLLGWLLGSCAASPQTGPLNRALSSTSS

| SMILES | Ki [nM] |
| --- | --- |
| O=S(=O)(Nc1nccnc1-c1ccc(CN2CCc3ccccc32)cc1)c1ccccc1C(F)(F)F | 2690 |
| CN(Cc1ccc(-c2nccnc2NS(=O)(=O)c2ccccc2C(F)(F)F)cc1)c1ccc(Cl)cc1Cl | 2820 |
| O=S(=O)(Nc1nccnc1-c1ccc(COc2ccc(Cl)nc2)cc1)c1ccccc1C(F)(F)F | 720 |
| Cc1cc2ccccc2n1Cc1ccc(-c2nccnc2NS(=O)(=O)c2ccccc2C(F)(F)F)cc1 | 3060 |
| COc1ccc2c(c1)cc(C)n2Cc1ccc(-c2nccnc2NS(=O)(=O)c2ccccc2Cl)cc1 | 2210 |
| CN(Cc1ccc(-c2nccnc2NS(=O)(=O)c2ccccc2C(F)(F)F)cc1)c1ccc(Cl)c(Cl)c1 | 1580 |
| O=S(=O)(Nc1nccnc1-c1ccc(COc2ccccc2)cc1)c1ccccc1C(F)(F)F | 1320 |
| O=S(=O)(Nc1nccnc1-c1ccc(Cn2ccc3cc(F)ccc32)cc1)c1ccccc1C(F)(F)F | 950 |
| CN(Cc1ccc(-c2nccnc2NS(=O)(=O)c2ccccc2C(F)(F)F)cc1)c1ccc(C#N)cc1 | 470 |
| O=S(=O)(Nc1nccnc1-c1ccc(COc2ccc(F)cc2)cc1)c1ccccc1C(F)(F)F | 480 |

Further molecules by falling Ki, results first:

| Ki [nM] | SMILES |
| --- | --- |
| 4650 | Cc1cc2cc(Cl)ccc2n1Cc1ccc(-c2nccnc2NS(=O)(=O)c2ccccc2C(F)(F)F)cc1 |
| 4440 | O=S(=O)(Nc1nccnc1-c1ccc(CN(Cc2ccccc2)c2ccccn2)cc1)c1ccccc1C(F)(F)F |
| 2950 | CN(Cc1ccc(-c2nccnc2NS(=O)(=O)c2ccccc2Cl)cc1)c1ccc(F)cc1F |
| 2900 | O=S(=O)(Nc1nccnc1-c1ccc(COc2cccc(Cl)c2)cc1)c1ccccc1C(F)(F)F |
| 2640 | O=S(=O)(Nc1nccnc1-c1ccc(CN(Cc2ccccc2)c2ccccn2)cc1)c1ccccc1Cl |
| 2600 | COc1ccc(OCc2ccc(-c3nccnc3NS(=O)(=O)c3ccccc3C(F)(F)F)cc2)cc1 |
| 1930 | O=S(=O)(Nc1nccnc1-c1ccc(Cn2ccc3ccc(F)cc32)cc1)c1ccccc1C(F)(F)F |
| 1590 | N#Cc1ccc(OCc2ccc(-c3nccnc3NS(=O)(=O)c3ccccc3C(F)(F)F)cc2)cc1 |
| 1490 | CN(Cc1ccc(-c2nccnc2NS(=O)(=O)c2ccccc2Cl)cc1)c1ccc(C#N)cc1 |
| 1470 | CN(Cc1ccc(-c2nccnc2NS(=O)(=O)c2ccccc2C(F)(F)F)cc1)c1ccc(Cl)cc1 |
| 850 | O=S(=O)(Nc1nccnc1-c1ccc(Cn2c(-c3ccccn3)cc3ccccc32)cc1)c1ccccc1C(F)(F)F |
| 700 | CN(Cc1ccc(-c2nccnc2NS(=O)(=O)c2ccccc2C(F)(F)F)cc1)c1cccc(F)c1 |
| 620 | O=S(=O)(Nc1nccnc1-c1ccc(CN2CCOc3ccccc32)cc1)c1ccccc1C(F)(F)F |
| 590 | CCN(Cc1ccc(-c2nccnc2NS(=O)(=O)c2ccccc2C(F)(F)F)cc1)c1ccccc1 |
